The results in this text go back to US11434241B2, “Pyrimidine derivatives for prevention and treatment of bacterial infections” (UNIVERSITE DE LIEGE, priority 2018, dated 2022).

The structures appear in SMILES notation. ≈ marks a conversion by molar mass, not a printed value. Like-named read-outs stand apart in the source and are kept apart here.

The subject of experiment [1] is Staphylococcus epidermidis (ATCC 35984, also known as RP62A or MRSE). In words: MIC determination on S. epidermidis (EUCAST, OD600 after overnight growth in MHB). Type of experiment: cell-based. As for the experimental part: The Minimal Inhibitory Concentration (MIC) of molecules 2329, 2348, 2412, 2452 and 2461 was determined on Staphylococcus epidermidis (ATCC 35984, also known as RP62A) according to EUCAST (European Committee on Antimicrobial Susceptibility Testing) recommendations.
Briefly, a single colony grown on a Tryptic Soy Agar (TSA) plate was resuspended and cultured in Tryptic Soy Broth (TSB) overnight (O/N) in aerobic conditions (37° C. with 220 rpm shaking), next day a 1:50 inoculum in Mueller-Hinton broth (MHB) was incubated in aerobic conditions for 3 hr and an inoculum of 1:100 dilution, corresponding to 3×10^5 CFU/ml, was incubated in presence or absence of different concentrations of the molecules in 1% DMSO (vehicle). After O/N growth the OD of each culture was measured at 600 nm in a spectrophotometer (OD600). The MIC represents the concentration at which there is no visible growth of bacteria, i.e. ΔOD at 600 nm equal to zero (blank is the medium alone).
The Minimal Inhibitory Concentration (MIC) of pyrazolopyrimidine molecules 2539, 2544, 2666,2676, 2693, 2783, 2784 and 2782 and of purine molecules 2498, 2511, 2525, 2527, 2833, and 2840 was determined on S. epidermidis (ATCC 35984, also known as RP62A or MRSE) according to EUCAST (European Committee on Antimicrobial Susceptibility Testing) recommendations.
Briefly, a single colony grown on an agar plate was resuspended and cultured in Triptic Soy Broth (TSB) medium overnight (O/N) in aerobic conditions (37° C. with 220 rpm shaking), next day a 1:50 inoculum in Mueller-Hinton broth (MHB) was incubated in aerobic conditions for 3 hr (OD=0.08-0.1) and an inoculum of 1:300 dilution, corresponding to 3×10^5 CFU/ml, was incubated in presence or absence of different concentrations of each of the molecules in 1% DMSO (vehicle). After O/N growth the OD of each culture was measured at 600 nm (600) in a spectrophotometer (Victor 3-Perkin Elmer). The MIC represents the concentration at which there is no visible growth of bacteria, i.e. ΔOD at 600 nm equal to zero (where ΔOD is the difference between the OD with the molecule and the OD of the blank, the medium alone).
(§1) Molecule 36z has been tested for its potential antibacterial activity by determining its minimal inhibitory concentration (MIC) according to protocols recommended by EUCAST to assess the efficacy of antibiotics against bacterial strains. In brief MIC in MRSA (ATCC BAA-1556) or in Xen29 (Perkin Elmer-ATCC 12600) for 36z (molecule 25 in WO2009/034386) was determined by culturing a single colony of MRSA or Xen29 in brain heart infusion (BHI) broth overnight (O/N) in aerobic conditions (37° C. with 220 rpm shaking), while MIC for MRSE (ATCC 35984) was determined by culturing MRSE in TSB O/N. Next day a 1:100 inoculum in Mueller-Hinton broth (MHB) is incubated in aerobic conditions for 3 hr (OD=0.08-0.1) and an inoculum of 1:300 dilution, corresponding to 3×10^5 CFU/ml, is incubated in presence or absence of different concentrations of the tested molecules in 1% DMSO. After O/N growth the OD of each culture was measured at 600 nm (OD600) in a spectrophotometer (Victor 3-Perkin Elmer). The MIC represents the concentration at which there is no visible growth of bacteria, i.e. ΔOD at 600 nm equal to zero (blank is the medium alone). No antibacterial activity was found against MRSA (ATCC BAA-1556), Xen29 (Perkin Elmer-ATCC 12600 or MRSE (ATCC 35984) strains when the molecule was used at concentrations up to 200 μM.

Experiment [2] has as its system S. aureus Xen29 (ATCC 12600). In words: MIC determination on bioluminescent S. aureus Xen29. The conditions noted are these: for antibacterial activity / inhibition of Xen29 growth (in words): MHB medium; for MIC: Staphylococcus aureus. It counts as cell-based, Staphylococcus aureus. Here is the method: (§2) Further experiments are conducted using different strains of S. aureus, as clinically relevant Gram-positive bacterial strains: S. aureus ATCC 25904, methicillin-resistant S. aureus (MRSA) ATCC BAA-1556, Glycopeptide intermediate-resistant (GISA) S. aureus Mu-50 (ATCC 700695) in order to determine the Minimal Inhibitory Concentration (MIC) which is the minimal concentration required to prevent bacterial growth. The bioluminescent strain S. aureus Xen29 (ATCC 12600) was also used. This strain is derived from the parental strain S. aureus ATCC 12600, a pleural fluid isolate, which is also designated as NCTC8532.
(§3) A single colony selected from the different strains of S. aureus is resuspended and cultured in brain heart infusion (BHI) broth overnight (O/N) in aerobic conditions (37° C. with 220 rpm shaking), next day a 1:100 inoculum in Mueller-Hinton broth (MHB) is incubated in aerobic conditions for 3 hr (=OD0.08-0.1) and an inoculum of 1:300 dilution, corresponding to 3×10^5 CFU/ml, is incubated in presence or absence of different concentrations of the tested molecules in 1% DMSO. After O/N growth the OD of each culture was measured at 600 nm (OD600) in a spectrophotometer (Victor 3-Perkin Elmer). The MIC represents the concentration at which there is no visible growth of bacteria, i.e. ΔOD at 600 nm equal to zero (blank is the medium alone). […] The MIC of molecule 2329 against Glycopeptide intermediate-resistant (GISA) S. aureus Mu-50 (ATCC 700695) is in between 25 and 30 μM, while it is above 50 μM for molecules 2348, 2412, and 2452.
(§4) Further experiments are conducted using different strains of S. aureus, as clinically relevant Gram-positive bacterial strains: methicillin-resistant S. aureus (MRSA) ATCC BAA-1556 and S. aureus Xen29 (Perkin Elmer ATCC 12600).
(§5) To determine the MIC of the above mentioned molecules in MRSA or in Xen29, a single colony of MRSA or Xen29 is resuspended and cultured in brain heart infusion (BHI) broth overnight (O/N) in aerobic conditions (37° C. with 220 rpm shaking), next day a 1:100 inoculum in Mueller-Hinton broth (MHB) is incubated in aerobic conditions for 3 hr (OD=0.08-0.1) and an inoculum of 1:300 dilution, corresponding to 3×10^5 CFU/ml, is incubated in presence or absence of different concentrations of the tested molecules in 1% DMSO. After O/N growth the OD of each culture was measured at 600 nm (OD600) in a spectrophotometer (Victor 3-Perkin Elmer). The MIC represents the concentration at which there is no visible growth of bacteria, i.e. ΔOD at 600 nm equal to zero (blank is the medium alone).
as §1

The test system of experiment [3] is methicillin-resistant S. aureus (MRSA) ATCC BAA-1556. In words: MIC determination on methicillin-resistant S. aureus. The settings on record: for antibacterial activity against MRSA (in words): MHB medium; for MIC: Staphylococcus aureus. It counts as cell-based, Staphylococcus aureus. Here is the method:
as §2, §3, §4, §5, §1

The mark [4] stands for this setting: Staphylococcus epidermidis, MHB medium, tested up to 100 μM, read-out: MIC MRSE.
The mark [5] stands for this setting: MHB medium, tested up to 100 μM, hydrochloride, read-out: MIC MRSE.
Setting [6] is: Staphylococcus epidermidis, read-out: MIC MRSE.

For `CCn1ncc2c(N[C@@H]3C[C@H]3c3ccc(F)c(F)c3)nc(SC)nc21` [Molecule 2544, N-((1R,2S)-2-(3,4-difluorophenyl)cyclopropyl)-1-ethyl-6-(methylthio)-1H-pyrazolo[3,4-d]pyrimidin-4-amine], in experiment [1] (MHB medium), the “antibacterial activity / inhibition of MRSE growth (in words)” value was “able to inhibit MRSE growth”. The MIC in experiment [1] (setting [4]) was determined as 80 µM (≈ 28.9 µg/mL); in experiment [2] (ATCC12600, read-out: MIC Xen29), 50 µM (≈ 18.1 µg/mL); in experiment [3] (read-out: MIC MRSA), 50 µM (≈ 18.1 µg/mL). In addition, the “antibacterial activity / inhibition of Xen29 growth (in words)” value in experiment [2] was “able to inhibit”. Moreover, the “antibacterial activity against MRSA (in words)” value in experiment [3] is “active”.

On to `CCCn1ncc2c(N[C@@H]3C[C@H]3c3ccc(F)c(F)c3)nc(SC)nc21.Cl` [Molecule 2693, N-((1R,2S)-2-(3,4-difluorophenyl)cyclopropyl)-6-(methylthio)-1-propyl-1H-pyrazolo[3,4-d]pyrimidin-4-amine hydrochloride], for which the MIC in experiment [1] (setting [5]) is >100 µM; in experiment [1] (setting [6]), > 100 µM; in experiment [2] (ATCC12600, read-out: MIC Xen29) it was > 100 µM; in experiment [3] (read-out: MIC MRSA) it was 20 µM. In experiment [3], the “antibacterial activity against MRSA (in words)” value was “active”.

For the compound `CCSc1nc(N[C@@H]2C[C@H]2c2ccc(F)c(F)c2)c2cnn(CC)c2n1.Cl` [Molecule 2783, N-((1R,2S)-2-(3,4-difluorophenyl)cyclopropyl)-6-(ethylthio)-1-ethyl-1H-pyrazolo[3,4-d]pyrimidin-4-amine hydrochloride], the MIC in experiment [1] (setting [5]) is >100 µM; in experiment [1] (setting [6]) it was > 100 µM; in experiment [3] (read-out: MIC MRSA), 25 µM. Further, the “antibacterial activity against MRSA (in words)” value in experiment [3] is recorded as “active”.

Take `CCCSc1nc(N[C@@H]2C[C@H]2c2ccc(F)c(F)c2)c2cnn(C)c2n1.Cl` [Molecule 2782, N-((1R,2S)-2-(3,4-difluorophenyl)cyclopropyl)-6-(propylthio)-1-methyl-1H-pyrazolo[3,4-d]pyrimidin-4-amine hydrochloride]: the MIC in experiment [1] (setting [5]) was >100 µM; in experiment [1] (setting [6]), > 100 µM; in experiment [3] (read-out: MIC MRSA) it was 25 µM. The “antibacterial activity against MRSA (in words)” value in experiment [3] was “active”.

With `CCCCOc1nc(NC2CC2)c2ncn(Cc3c(F)ccc(C)c3F)c2n1` [38z″, 2-Butoxy-N-cyclopropyl-9-(2,6-difluoro-3-methylbenzyl)-9H-purin-6-amine, reference compound], the MIC in experiment [1] (Staphylococcus epidermidis, read-out: MIC MRSE (comparison molecules of WO2009/034386)) is > 200 µM; in experiment [2] (ATCC12600, read-out: MIC Xen29 (comparison molecules of WO2009/034386)), > 200 µM; in experiment [3] (read-out: MIC MRSA (comparison molecules of WO2009/034386)), > 200 µM.

On to `CSc1nc(N[C@@H]2C[C@H]2c2ccc(F)c(F)c2)c2cnn(C)c2n1` [Molecule 2539, N-((1R,2S)-2-(3,4-difluorophenyl)cyclopropyl)-1-methyl-6-(methylthio)-1H-pyrazolo[3,4-d]pyrimidin-4-amine], for which the “antibacterial activity / inhibition of MRSE growth (in words)” value in experiment [1] (MHB medium) is “able to inhibit MRSE growth”. Also, the MIC was determined as 50 µM (≈ 17.4 µg/mL) in experiment [1] (setting [4]); 30 µM (≈ 10.4 µg/mL) in experiment [2] (ATCC12600, read-out: MIC Xen29); 25 µM (≈ 8.68 µg/mL) in experiment [3] (read-out: MIC MRSA). Moreover, in experiment [2], the “antibacterial activity / inhibition of Xen29 growth (in words)” value is reported as “able to inhibit”. For the same compound, the “antibacterial activity against MRSA (in words)” value in experiment [3] is listed as “active”.

For the compound `CSc1nc(N[C@@H]2C[C@H]2c2ccc(F)c(F)c2)c2cnn(C(C)C)c2n1.Cl` [Molecule 2676, N-((1R,2S)-2-(3,4-difluorophenyl)cyclopropyl)-1-isopropyl-6-(methylthio)-1H-pyrazolo[3,4-d]pyrimidin-4-amine hydrochloride], in experiment [1] (MHB medium), the “antibacterial activity / inhibition of MRSE growth (in words)” value was “able to inhibit MRSE growth”. Also, the MIC in experiment [1] (setting [6]) was 50 µM; in experiment [2] (ATCC12600, read-out: MIC Xen29), > 100 µM; in experiment [3] (read-out: MIC MRSA) it was 20 µM. The “antibacterial activity against MRSA (in words)” value in experiment [3] was “active”.

With `CSc1nc(N[C@@H]2C[C@H]2c2ccc(F)c(F)c2)c2ncn(C)c2n1` [Molecule 2498, N-((1R,2S)-2-(3,4-difluorophenyl)cyclopropyl)-9-methyl-2-(methylthio)-9H-purin-6-amine], the “antibacterial activity / inhibition of MRSE growth (in words)” value in experiment [1] (MHB medium) was “able to inhibit MRSE growth”. Further, the MIC in experiment [1] (setting [4]) is 60 µM (≈ 20.8 µg/mL); in experiment [2] (ATCC12600, read-out: MIC Xen29), 30 µM (≈ 10.4 µg/mL); in experiment [3] (read-out: MIC MRSA) it was 30 µM (≈ 10.4 µg/mL). Moreover, in experiment [2], the “antibacterial activity / inhibition of Xen29 growth (in words)” value is listed as “able to inhibit”. In experiment [3], the “antibacterial activity against MRSA (in words)” value is given as “active”.

Consider `CCCSc1nc(N[C@@H]2C[C@H]2c2ccc(F)c(F)c2)c2cnn(CC)c2n1.Cl` [Molecule 2784, N-((1R,2S)-2-(3,4-difluorophenyl)cyclopropyl)-6-(propylthio)-1-ethyl-1H-pyrazolo[3,4-d]pyrimidin-4-amine hydrochloride], for which the MIC in experiment [1] (setting [5]) is >100 µM; in experiment [1] (setting [6]), > 100 µM; in experiment [3] (read-out: MIC MRSA), 50 µM. Moreover, in experiment [3], the “antibacterial activity against MRSA (in words)” value is given as “active”.

`CCCCSc1nc(N[C@@H]2C[C@H]2c2ccc(F)c(F)c2)c2ncn(CC)c2n1` [Molecule 2840, 2-(butylthio)-N-((1R,2S)-2-(3,4-difluorophenyl)cyclopropyl)-9-ethyl-9H-purin-6-amine]: the MIC in experiment [1] (MHB medium, tested up to 100 μM, read-out: MIC MRSE) was >100 µM; in experiment [1] (setting [4]), > 100 µM; in experiment [3] (read-out: MIC MRSA) it was 50 µM (≈ 20.2 µg/mL). In experiment [3], the “antibacterial activity against MRSA (in words)” value is recorded as “active”.
